Test results as given in PMC8662641, “Site-Specific Labeling of Endogenous Proteins Using CoLDR Chemistry” (Journal of the American Chemical Society, 2021).

Legend:
[1] = Buffer stability assay; format: physicochemical
Protocol: A sample of 100 μM of the electrophile (1a–1p) was incubated with 100 μM 4-nitrocyanobenzene as an internal standard in a 100 mM potassium phosphate buffer of pH 8.0. All solvents were bubbled with argon. Reaction mixtures were kept at 37 °C with shaking. After 4 days (unless otherwise mentioned), 5 μL from the reaction mixture was injected into the LC/MS to check the stability of the compounds.

[2] = molecular target: T1, BTK-1h (Homo sapiens, UniProt Q06187); assay: High-throughput screening with 1h-labeled BTK; format: binding; conditions: Dataset S2A; 200 μM compound, BTK-1h, 32 °C, 10 min
T1 construct: The BTK kinase domain was diluted to 2 μM in the buffer, and 2 μM 1h was added; made in house
Protocol: The collection was composed of BTK binding compounds obtained in our previous luminescence screen[37] (Data set S2). […] The resulting BTK-1h (50 μL) was added to the inhibitors.

[3] = molecular target: BTK (Homo sapiens, UniProt Q06187); set-up: BTK kinase domain was expressed and purified as previously reported; made in house; method as in Reddi et al., J. Am. Chem. Soc. 2021, 143 (13), 4979–4992; conditions: ref Reddi et al., J. Am. Chem. Soc. 2021, 143 (13), 4979–4992; cited from earlier work
Sequence of BTK (Q06187 402-655 limits assumed): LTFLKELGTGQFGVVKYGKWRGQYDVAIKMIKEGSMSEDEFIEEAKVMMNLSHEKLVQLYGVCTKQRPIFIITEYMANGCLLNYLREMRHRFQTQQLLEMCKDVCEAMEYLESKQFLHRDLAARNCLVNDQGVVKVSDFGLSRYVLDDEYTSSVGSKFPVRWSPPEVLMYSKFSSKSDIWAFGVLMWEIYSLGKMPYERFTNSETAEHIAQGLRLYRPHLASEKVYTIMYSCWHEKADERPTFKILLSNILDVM

T1 sequence (Q06187 402-655): as the sequence (Q06187 402-655 limits assumed) above

Row | SMILES | water adduct formed ([1]; PBS buffer pH 8, 37 °C) [%] | FI (650)/FI (620) [2] | FI (BTK-1h)/FI (BTK-1h+Inhibitor) at 620 nm [2] | BTK Inhibition reported in luminescence assay* [3] | Ibr-H elimination ([1]; phosphate buffer pH 8, 37 °C, after 4 days) [%]
1 | C=C(CN1CCC[C@@H](n2nc(-c3ccc(Oc4ccccc4)cc3)c3c(N)ncnc32)C1)C(=O)NCCOCCOCCOCCOCCC(=O)Nc1cccc2c1CN(C1CCC(=O)NC1=O)C2=O (some centres unmarked) [1p] | 5 | – | – | – | –
2 | C[C@@H](Oc1ccc2[nH]nc(/C=C/c3cnn(CCO)c3)c2c1)c1c(Cl)cncc1Cl [PCM-0215376-001] | – | 1.5356 | 1.156 | 101.4 | –
3 | C=C(CN1CCC[C@@H](n2nc(-c3ccc(Oc4ccccc4)cc3)c3c(N)ncnc32)C1)C(=O)NCCN [1e] | – | – | – | – | 25
4 | O=C([O-])CCN1C(=O)/C(=C/c2ccc(-c3ccc([N+](=O)[O-])cc3)o2)SC1=S.[K+] [PCM-0215696-001] | – | 0.9958 | 1.02 | 59.5 | –
5 | Cc1c[nH]c2nc(Nc3ccc(N4CCN(C)CC4)c(F)c3)nc(-c3cccc(CC#N)c3)c12 [PCM-0215633-001] | – | 1.1215 | 1.062 | 92.4 | –
6 | COc1ccc2cc3[n+](cc2c1O)CCc1cc2c(cc1-3)OCO2.[Cl-] [PCM-0216489-001] | – | 1.203 | 0.9862 | 97.3 | –
7 | O=c1cc(-c2ccc(O)cc2)oc2cc(O)cc(O)c12 [PCM-0064643-001] | – | 0.8396 | 1.036 | 63.8 | –
8 | COc1cc(O)c2c(=O)cc(-c3ccc(O)c(O)c3)oc2c1 [PCM-0216461-001] | – | 2.385 | 1.063 | 61 | –
9 | O=C(O)c1ccc(C=C2SC(=S)N(c3cccc(C(F)(F)F)c3)C2=O)cc1 [PCM-0095759-002] | – | 1.083 | 1.262 | 54.1 | –
10 | C=CC(=O)N1CC[C@@H](Oc2nc(Nc3ccc(N4CCC(N5CCN(C)CC5)CC4)cc3)c(C(N)=O)nc2CC)C1 [PCM-0215788-001] | – | 1.046 | 1.04 | 91 | –
11 | CNC(=O)c1cc(Oc2ccc(NC(=O)Nc3cc(C(C)(C)C)nn3-c3ccc4ncccc4c3)c(F)c2)ccn1 [PCM-0095514-002] | – | 1.156 | 1.374 | 98.6 | –
12 | CCCCCC/C=C\CCCCCCCc1cccc(O)c1C(=O)O [PCM-0216327-001] | – | 3.101 | 1.308 | 84.2 | –
13 | CCOc1cc2ncc(C#N)c(Nc3ccc(F)c(Cl)c3)c2cc1NC(=O)/C=C/CN(C)C [PCM-0095063-002] | – | 0.9721 | 1.036 | 96.6 | –
14 | CCCCCCCCCCCCc1ccc(S(=O)(=O)Nc2nncs2)cc1 [PCM-0095111-002] | – | 1.107 | 1.042 | 53.8 | –
15 | NC(=O)Nc1cc(-c2cccc(F)c2)sc1C(=O)N[C@H]1CCCNC1 [PCM-0095092-003] | – | 1.105 | 1.137 | 86.9 | –
16 | COC(=O)C1=C(C)NC(C)=C(C(=O)OCCN2CCN(C(c3ccccc3)c3ccccc3)CC2)C1c1cccc([N+](=O)[O-])c1.Cl.Cl (centres unmarked) [PCM-0090281-005] | – | 1.357 | 1.072 | 101.2 | –
17 | C=CC(=O)Nc1cccc(Nc2nc(Nc3ccc(NC4CN(CCF)C4)cc3OC)ncc2C(F)(F)F)c1 [PCM-0215208-001] | – | 1.1509 | 1.028 | 91 | –
18 | Cc1ccc(NC(=O)Nc2cc(C(F)(F)F)ccc2F)cc1Nc1ccc2c(c1)NC(=O)/C2=C\c1ccc[nH]1 [PCM-0215372-001] | – | 1.5507 | 1.003 | 115.9 | –
19 | COc1c(O)c(C)cc2c1C(=O)c1c(O)cccc1C2=O [PCM-0216457-001] | – | 1.085 | 1.022 | 64.1 | –
20 | CC(C)(C)c1cc(/C=C(\C#N)C(N)=S)cc(C(C)(C)C)c1O [PCM-0064936-001] | – | 0.9335 | 1.037 | 82.8 | –
21 | Cc1cc(N2CCOCC2)cc2[nH]c(-c3c(NC[C@@H](O)c4cccc(Cl)c4)cc[nH]c3=O)nc12 [PCM-0214699-001] | – | 1.235 | 1.093 | 109 | –
22 | COc1cc(C[C@H](C)[C@H](C)Cc2ccc3c(c2)OCO3)ccc1O [PCM-0216424-001] | – | 0.9224 | 1.025 | 68.7 | –
23 | CC(=O)O/N=C1/C(c2c(O)[nH]c3cc(Br)ccc23)=Nc2ccccc21 [PCM-0215536-001] | – | 1.013 | 1.019 | 60.7 | –
24 | CCOC(=O)c1ccc(N2NC(=O)/C(=C/c3ccc([N+](=O)[O-])o3)C2=O)cc1 [PCM-0095807-002] | – | 2.739 | 1.077 | 64.9 | –
25 | O=C(O)C1(Cc2cccc(Nc3nccs3)n2)CCC(Oc2cccc(Cl)c2F)CC1 (centres unmarked) [PCM-0095334-002] | – | 1.3013 | 1.347 | 102.1 | –
26 | CNCc1ccc(C)c(NC(=O)c2ccc(Nc3nc(-c4ccccc4)c4ccccc4n3)cc2)c1 [PCM-0095748-002] | – | 1.264 | 1.088 | 79.5 | –
27 | Cl.Cl.O=C1c2c(O)ccc(O)c2C(=O)c2c(NCCNCCO)ccc(NCCNCCO)c21 [PCM-0065547-003] | – | 1.449 | 1.019 | 51 | –
28 | O=c1cc(-c2ccccc2)oc2cc(O)c(O)c(O)c12 [PCM-0214670-001] | – | 2.028 | 1.072 | 79.4 | –
29 | COc1cc(N2CCC(N(C)C)CC2)ccc1Nc1ncc(Cl)c(Nc2ccccc2P(C)(C)=O)n1 [PCM-0215177-001] | – | 1.083 | 1.158 | 64.8 | –
